Several values for one entry are separate records, joined by “and”; a condition that tells them apart may be missing. Equal entries are not always repeated. Where two headings read alike, the source gives them in different places.
Legend:
human α-thrombin = human α-thrombin (Homo sapiens, UniProt P00734); experiment: Protease inhibition, Ki for human α-thrombin (fluorogenic substrate Z-Gly-Gly-Arg-AMC); assay type: biochemical; details: for Human alpha thrombin inhibition, slope normalized to DMSO: replicates R1-R3
Procedure: (§1) The inhibition constants (Ki) of cyclic peptides were calculated by measuring thrombin inhibition in the presence of different concentrations of the cyclic peptides. […] Human α-thrombin (Molecular Innovations) and rat α-thrombin (Molecular Innovations) were used at final concentrations of 2 nM and 3 nM, respectively, and fluorogenic substrate (Z-Gly-Gly-Arg-AMC, Bachem) was used at a concentration of 50 μM. Enzymatic activity was determined by measuring fluorescent gain on a Tecan Infinite M200 Pro microplate reader (excitation: 360 nm, emission: 465 nm) or a PHERAstar FSX microplate reader (excitation: 380 nm, emission: 440 nm) for 30 min at 25 °C with a fluorescent readout every 3 min. The two instruments were controlled with Tecan Infinite M200 Pro instrument software (iControl, version 1.12) and PHERAstar FSX software (version 5.70, edition 8), respectively. Protease inhibition was calculated by comparing the enzymatic activity to a control without cyclic peptide.
(§2) Half maximal inhibitory concentration (IC50) values were determined using a four-parameter logistic regression model in GraphPad Prism 9 to fit sigmoidal curves to the acquired data points according to equation (2) below.2 y=b+a−b/1+10^(logIC50−x)p where a and b represent the measured inhibition maximum and minimum, respectively; x is the logarithm of peptide concentration; y is the thrombin activity compared to a control without the cyclic peptide; and p is the Hill coefficient.
(§3) Ki values were calculated using the IC50 and the Cheng–Prusoff equation (equation (3)).3 Ki=IC50/1+S0/Km where Km is the Michaelis–Menten constant of the enzyme for the substrate used in the assay, and [S]0 is the initial substrate concentration.

rat α-thrombin = target: T1, rat α-thrombin (Rattus norvegicus, UniProt P18292); experiment: Protease inhibition, Ki for rat α-thrombin (fluorogenic substrate Z-Gly-Gly-Arg-AMC); assay type: biochemical; details: for Rat alpha thrombin inhibition, slope normalized to DMSO: replicates R1-R3
T1 construct: rat α-thrombin (Molecular Innovations) were used at final concentrations of 2 nM and 3 nM; purchased Molecular Innovations
Procedure: as §1, §2, §3

[1] = Passive artificial membrane permeability (PAMPA);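 as to Permeability% Average: top well sample relative to theoretical equilibrium sample by TIC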
[2] = peptide concentration 1.00E+02 uM
[3] = peptide concentration 1.19E-05 uM
[4] = peptide concentration 1.22E-02 uM
[5] = peptide concentration 1.25E+01 uM
[6] = peptide concentration 1.53E-03 uM
[7] = peptide concentration 1.56E+00 uM
[8] = peptide concentration 1.91E-04 uM
[9] = peptide concentration 1.95E-01 uM
[10] = peptide concentration 2.38E-05 uM
[11] = peptide concentration 2.44E-02 uM
[12] = peptide concentration 2.50E+01 uM
[13] = peptide concentration 3.05E-03 uM
[14] = peptide concentration 3.12E+00 uM
[15] = peptide concentration 3.81E-04 uM
[16] = peptide concentration 3.91E-01 uM
[17] = peptide concentration 4.77E-05 uM
[18] = peptide concentration 4.88E-02 uM
[19] = peptide concentration 5.00E+01 uM
[20] = peptide concentration 6.10E-03 uM
[21] = peptide concentration 6.25E+00 uM
[22] = peptide concentration 7.63E-04 uM
[23] = peptide concentration 7.81E-01 uM
[24] = peptide concentration 9.54E-05 uM
[25] = peptide concentration 9.77E-02 uM

- Ki (human α-thrombin; average of R1-R3, read-out: Human alpha thrombin inhibition, Ki Average): 1.57 µM
- Human alpha thrombin inhibition, slope normalized to DMSO (human α-thrombin; [2]): 9.8 and 10.5 and 10.6
- Human alpha thrombin inhibition, slope normalized to DMSO (human α-thrombin; [3]): 108.3 and 123.2 and 86.4
- Human alpha thrombin inhibition, slope normalized to DMSO (human α-thrombin; [4]): 81.6 and 60.4 and 71.9
- Human alpha thrombin inhibition, slope normalized to DMSO (human α-thrombin; [5]): 16.2 and 18.0 and 13.2
- Human alpha thrombin inhibition, slope normalized to DMSO (human α-thrombin; [6]): 102.7 and 105.3 and 96.0
- Human alpha thrombin inhibition, slope normalized to DMSO (human α-thrombin; [7]): 60.1 and 45.1 and 57.4
- Human alpha thrombin inhibition, slope normalized to DMSO (human α-thrombin; [8]): 110.2 and 100.0 and 95.6
- Human alpha thrombin inhibition, slope normalized to DMSO (human α-thrombin; [9]): 90.5 and 54.5 and 66.4
- Human alpha thrombin inhibition, slope normalized to DMSO (human α-thrombin; [10]): 111.1 and 102.0 and 98.3
- Human alpha thrombin inhibition, slope normalized to DMSO (human α-thrombin; [11]): 60.0 and 83.9 and 99.7
- Human alpha thrombin inhibition, slope normalized to DMSO (human α-thrombin; [12]): 16.8 and 4.9 and 12.0
- Human alpha thrombin inhibition, slope normalized to DMSO (human α-thrombin; [13]): 65.1 and 103.9 and 92.0
- Human alpha thrombin inhibition, slope normalized to DMSO (human α-thrombin; [14]): 47.1 and 40.3 and 37.6
- Human alpha thrombin inhibition, slope normalized to DMSO (human α-thrombin; [15]): 113.9 and 97.1 and 98.1
- Human alpha thrombin inhibition, slope normalized to DMSO (human α-thrombin; [16]): 59.1 and 81.1 and 60.5
- Human alpha thrombin inhibition, slope normalized to DMSO (human α-thrombin; [17]): 106.6 and 104.5 and 98.0
- Human alpha thrombin inhibition, slope normalized to DMSO (human α-thrombin; [18]): 96.4 and 58.3 and 94.8
- Human alpha thrombin inhibition, slope normalized to DMSO (human α-thrombin; [19]): 14.2 and 14.0 and 12.9
- Human alpha thrombin inhibition, slope normalized to DMSO (human α-thrombin; [20]): 78.1 and 71.3 and 72.1
- Human alpha thrombin inhibition, slope normalized to DMSO (human α-thrombin; [21]): 15.4 and 28.4 and 22.2
- Human alpha thrombin inhibition, slope normalized to DMSO (human α-thrombin; [22]): 61.4 and 105.9 and 50.7
- Human alpha thrombin inhibition, slope normalized to DMSO (human α-thrombin; [23]): 75.8 and 62.9 and 64.9
- Human alpha thrombin inhibition, slope normalized to DMSO (human α-thrombin; [24]): 104.3 and 61.9 and 103.5
- Human alpha thrombin inhibition, slope normalized to DMSO (human α-thrombin; [25]): 84.6 and 105.9 and 85.2
- IC50 (human α-thrombin; single replicates R1-R3, read-out: Human alpha thrombin inhibition, IC50): 2.7 µM and 1.73 µM and 1.69 µM
- Ki (rat α-thrombin; average of R1-R3, read-out: Rat alpha thrombin inhibition, Ki Average): 0.18 µM
- Rat alpha thrombin inhibition, slope normalized to DMSO (rat α-thrombin; [2]): 5.3 and 5.7 and 4.1
- Rat alpha thrombin inhibition, slope normalized to DMSO (rat α-thrombin; [3]): 101.7 and 102.1 and 101.8
- Rat alpha thrombin inhibition, slope normalized to DMSO (rat α-thrombin; [4]): 87.5 and 92.0 and 84.9
- Rat alpha thrombin inhibition, slope normalized to DMSO (rat α-thrombin; [5]): 9.2 and 8.7 and 7.8
- Rat alpha thrombin inhibition, slope normalized to DMSO (rat α-thrombin; [6]): 94.8 and 97.7 and 92.4
- Rat alpha thrombin inhibition, slope normalized to DMSO (rat α-thrombin; [7]): 25.0 and 25.1 and 31.0
- Rat alpha thrombin inhibition, slope normalized to DMSO (rat α-thrombin; [8]): 106.1 and 99.6 and 88.4
- Rat alpha thrombin inhibition, slope normalized to DMSO (rat α-thrombin; [9]): 69.0 and 50.2 and 49.8
- Rat alpha thrombin inhibition, slope normalized to DMSO (rat α-thrombin; [10]): 103.2 and 98.1 and 102.8
- Rat alpha thrombin inhibition, slope normalized to DMSO (rat α-thrombin; [11]): 92.3 and 89.1 and 86.1
- Rat alpha thrombin inhibition, slope normalized to DMSO (rat α-thrombin; [12]): 4.2 and 6.8 and 8.8
- Rat alpha thrombin inhibition, slope normalized to DMSO (rat α-thrombin; [13]): 99.2 and 99.8 and 88.1
- Rat alpha thrombin inhibition, slope normalized to DMSO (rat α-thrombin; [14]): 8.2 and 23.7 and 18.2
- Rat alpha thrombin inhibition, slope normalized to DMSO (rat α-thrombin; [15]): 107.3 and 92.0 and 81.7
- Rat alpha thrombin inhibition, slope normalized to DMSO (rat α-thrombin; [16]): 38.0 and 46.4 and 45.2
- Rat alpha thrombin inhibition, slope normalized to DMSO (rat α-thrombin; [17]): 102.3 and 101.4 and 86.4
- Rat alpha thrombin inhibition, slope normalized to DMSO (rat α-thrombin; [18]): 83.5 and 87.2 and 79.0
- Rat alpha thrombin inhibition, slope normalized to DMSO (rat α-thrombin; [19]): 3.7 and 8.5 and 7.9
- Rat alpha thrombin inhibition, slope normalized to DMSO (rat α-thrombin; [20]): 92.6 and 94.8 and 84.9
- Rat alpha thrombin inhibition, slope normalized to DMSO (rat α-thrombin; [21]): 13.6 and 12.8 and 13.7
- Rat alpha thrombin inhibition, slope normalized to DMSO (rat α-thrombin; [22]): 102.3 and 100.6 and 67.7
- Rat alpha thrombin inhibition, slope normalized to DMSO (rat α-thrombin; [23]): 42.8 and 23.4 and 43.3
- Rat alpha thrombin inhibition, slope normalized to DMSO (rat α-thrombin; [24]): 92.9 and 92.2 and 96.6
- Rat alpha thrombin inhibition, slope normalized to DMSO (rat α-thrombin; [25]): 73.2 and 69.4 and 67.8
- IC50 (rat α-thrombin; single replicates R1-R3, read-out: Rat alpha thrombin inhibition, IC50): 0.326 µM and 0.228 µM and 0.42 µM
- PAMPA permeability: % permeability ([1]; 50 μM, 12–18 h, acceptor concentration relative to equilibrium): 64 ± 11%
- Permeability% (single replicates R1–R3) ([1]; 50 μM, 13 h (Fig. 5d)): 76.34% and 63.06% and 53.71%
- Permeability% Average ([1]; 50 μM, 13 h (Fig. 5d)): 64.4%
- Papp at 50 μM ([1]; PAMPA, pH 7.4): 9.33 ×10⁻⁶ cm/s
SMILES: O=C1C[C@H]2CCCN2C(=O)[C@H](Cc2ccccc2)NC(=O)[C@@H](NC(=O)c2ccc(Cl)s2)CCC=CCCCN1 [compound 41]
- Ki (human α-thrombin; single replicates R1-R3, read-out: Human alpha thrombin inhibition, Ki): 2.08 µM (2×) and 1.34 µM (2×) and 1.3 µM (2×)
- Ki (rat α-thrombin; single replicates R1-R3, read-out: Rat alpha thrombin inhibition, Ki): 180 nM (2×) and 126 nM (2×) and 232 nM (2×)

Reference: paper PMC11062899, “De novo development of small cyclic peptides that are orally bioavailable” (Nature Chemical Biology, 2023)
